Data taken from ChEMBL document CHEMBL5030535, “Conjugates Derived from Lapatinib Derivatives with Cancer Cell Stemness Inhibitors Effectively Reversed Drug Resistance in Triple-Negative Breast Cancer” (J Med Chem, 2021).
The source made the active and inactive calls. No cut-off for these calls is given here.

Columns and labels:
MDA-MB-231 [1] = assay: Inhibition of cell stemness in human drug-tolerant MDA-MB-231/lapatinib cells assessed as inhibition of SOX-2 expression at 20 uM after 24 hrs by qRT-PCR analysis; format: functional, cell-based
[2] = molecular target: T1, Epidermal growth factor receptor (Homo sapiens, UniProt P00533); assay: Inhibition of exogenous EGFR (unknown origin)
[3] = Resistant factor, ratio of IC50 for antiproliferative activity against drug-tolerant human MDA-MB-231 cells to IC50 for human MDA-MB-231 cells; format: functional
[4] = molecular target: T1, Epidermal growth factor receptor; assay: Inhibition of human EGFR in human MDA-MB-231 cells assessed as inhibition of phosphorylation Akt1/2/3 at Ser473 of measured after 24 hrs by Western blot analysis; format: cell-based; conditions: dose 5-20 µM
[5] = molecular target: T1, Epidermal growth factor receptor; assay: Inhibition of human EGFR in human MDA-MB-231 cells assessed as inhibition of phosphorylation ERK1/2 at T202/Y204 of measured after 24 hrs by Western blot analysis; format: cell-based; conditions: dose 5-20 µM
MDA-MB-231 [6] = assay: Inhibition of Wnt/beta-Catenin signaling in drug-tolerant human MDA-MB-231/lapatinib cells assessed as reduction in cyclin D1 mRNA level at 20 uM incubated for 24 hrs by qRT-PCR analysis
MDA-MB-231 [7] = assay: Antiproliferative activity against drug-tolerant human MDA-MB-231/lapatinib cells assessed as CD44+/CD24- cells measured at 20 uM after 24 hrs by MTT assay; format: functional
MDA-MB-231 [8] = assay: Cell cycle arrest in human drug-tolerant MDA-MB-231/lapatinib cells assessed as accumulation at G0-G1phase at 20 uM incubated for 24 hrs by PI staining based flow cytometry; format: functional
[9] = molecular target: T2, Aldehyde dehydrogenase 1A1 (Homo sapiens, UniProt P00352); assay: Inhibition of ALDH1A1 in human drug-tolerant MDA-MB-231/lapatinib cells assessed as after 24 hrs
T2 sequence (P00352 whole entry): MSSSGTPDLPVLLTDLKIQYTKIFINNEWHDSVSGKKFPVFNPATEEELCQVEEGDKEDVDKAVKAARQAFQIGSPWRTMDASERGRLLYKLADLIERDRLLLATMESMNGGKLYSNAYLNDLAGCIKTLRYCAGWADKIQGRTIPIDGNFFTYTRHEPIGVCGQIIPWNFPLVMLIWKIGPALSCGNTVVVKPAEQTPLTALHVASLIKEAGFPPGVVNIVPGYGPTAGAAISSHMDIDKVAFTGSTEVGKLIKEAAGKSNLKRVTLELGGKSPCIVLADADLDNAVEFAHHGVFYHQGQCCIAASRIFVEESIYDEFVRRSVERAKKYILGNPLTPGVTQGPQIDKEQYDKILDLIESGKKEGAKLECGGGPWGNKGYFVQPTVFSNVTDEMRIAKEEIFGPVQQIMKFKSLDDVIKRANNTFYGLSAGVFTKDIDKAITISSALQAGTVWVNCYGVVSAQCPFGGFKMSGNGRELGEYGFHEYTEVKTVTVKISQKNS

MDA-MB-231 [10] = assay: Inhibition of cell stemness in human drug-tolerant MDA-MB-231/lapatinib cells assessed as inhibition of OCT4 expression at 20 uM after 24 hrs by qRT-PCR analysis; format: functional, cell-based
MDA-MB-231 [11] = assay: Inhibition of cell stemness in human drug-tolerant MDA-MB-231/lapatinib cells assessed as inhibition of CD44+/CD24- expression at 20 uM after 24 hrs by flow cytometry analysis; format: functional
MDA-MB-231 [12] = assay: Antiproliferative activity against human MDA-MB-231 cells assessed as inhibition of cell growth measured after 72 hrs by MTT assay; format: functional, cell-based; conditions: MDA-MB-231, 72 h
MDA-MB-231 [13] = assay: Inhibition of cell invasion in human MDA-MB-231/lapatinib cells at 20 uM; format: functional
MDA-MB-231 [14] = assay: Inhibition of Wnt/beta-Catenin signaling in drug-tolerant human MDA-MB-231/lapatinib cells assessed as reduction in S100A4 mRNA level at 20 uM incubated for 24 hrs by qRT-PCR analysis
MCF7 = assay: Antiproliferative activity against human MCF7 cells assessed as inhibition of cell growth measured after 72 hrs by MTT assay; format: functional, cell-based; conditions: MCF7, 72 h
MDA-MB-231 [15] = assay: Induction apoptosis in MDA-MB-231/ lapatinib cells assessed as apoptotic cells at 20 uM measured after 24 hrs by propidium iodide staining based flow cytometric analysis; format: functional, cell-based; conditions: Homo sapiens
MDA-MB-231 [16] = assay: Inhibition of cell stemness in drug-tolerant human MDA-MB-231/lapatinib cells assessed as inhibition of Jagged expression at 20 uM after 24 hrs by flow cytometry; format: functional, cell-based
MDA-MB-231 [17] = assay: Inhibition of cell stemness in human drug-tolerant MDA-MB-231/lapatinib cells assessed as inhibition of Kif4 expression at 20 uM after 24 hrs by qRT-PCR analysis; format: functional, cell-based
MDA-MB-231 [18] = assay: Inhibition of Wnt/beta-Catenin signaling in drug-tolerant human MDA-MB-231/lapatinib cells assessed as increase in nuclear expression of p-beta-catenin level at 20 uM incubated for 24 hrs by Western blot analysis
[19] = molecular target: T1, Epidermal growth factor receptor; assay: Inhibition of human EGFR phosphorylation in human MDA-MB-231 cells measured after 24 hrs by Western blot analysis; format: cell-based; conditions: dose 5-20 µM
MDA-MB-231 [20] = assay: Inhibition of cell stemness in drug-tolerant human MDA-MB-231/lapatinib cells assessed as inhibition of ALDH1A1 expression at 20 uM after 24 hrs by flow cytometry; format: functional
MDA-MB-231 [21] = assay: Antiproliferative activity against drug-tolerant human MDA-MB-231/lapatinib cells assessed as CD44-positive cells measured after 24 hrs by MTT assay; format: functional, cell-based; conditions: MDA-MB-231, 24 h
[22] = molecular target: T1, Epidermal growth factor receptor; assay: Inhibition of human EGFR in human drug-tolerant MDA-MB-231/lapatinib cells assessed as inhibition of phosphorylation Akt1/2/3 at Ser473 of measured after 24 hrs by Western blot analysis; conditions: dose 5-20 µM
[23] = molecular target: T1, Epidermal growth factor receptor; assay: Inhibition of human EGFR phosphorylation in human drug-tolerant MDA-MB-231/lapatinib cells measured after 24 hrs by Western blot analysis; conditions: dose 5-20 µM
MDA-MB-231 [24] = assay: Cell cycle arrest in human MDA-MB-231 cells assessed as accumulation at G0-G1phase at 20 uM incubated for 24 hrs by PI staining based flow cytometry; format: functional
MDA-MB-231 [25] = assay: Antiproliferative activity against human drug tolerant MDA-MB-231/lapatinib cells assessed as inhibition of cell growth in measured after 72 hrs by MTT assay; format: functional, cell-based; conditions: MDA-MB-231, 72 h
[26] = molecular target: T1, Epidermal growth factor receptor; assay: Inhibition of human EGFR in human drug-tolerant MDA-MB-231/lapatinib cells assessed as inhibition of phosphorylation ERK1/2 at T202/Y204 of measured after 24 hrs by Western blot analysis; conditions: dose 5-20 µM
[27] = Octanol/water partition coefficient, log P of the compound by shake flask method based thermodynamic solubility assay; format: physicochemical
MDA-MB-231 [28] = assay: Induction of apoptosis in drug-tolerant human MDA-MB-231 cells/lapatinib cells assessed as apoptotic rate at 20 uM measured after 24 hrs by flow cytometry; format: functional
MDA-MB-231 [29] = assay: Inhibition of Wnt/beta-Catenin signaling in drug-tolerant human MDA-MB-231/lapatinib cells assessed as reduction in c-Myc mRNA level at 20 uM incubated for 24 hrs by qRT-PCR analysis
MDA-MB-231 [30] = assay: Inhibition of Wnt/beta-Catenin signaling in drug-tolerant human MDA-MB-231/lapatinib cells assessed as reduction in p-GSK3beta level at 20 uM incubated for 24 hrs by Western blot analysis
MDA-MB-231 [31] = assay: Inhibition of Wnt/beta-Catenin signaling in drug-tolerant human MDA-MB-231/lapatinib cells assessed as reduction in MMP7 mRNA level at 20 uM incubated for 24 hrs by qRT-PCR analysis; format: tissue-based
HUVEC = assay: Antiproliferative activity against human HUVEC cells assessed as inhibition of cell growth in measured after 72 hrs by MTT assay; format: cell-based
MDA-MB-231 [32] = assay: Inhibition of cell stemness in drug-tolerant human MDA-MB-231/lapatinib cells assessed as inhibition of Notch expression at 20 uM after 24 hrs by flow cytometry; format: functional, cell-based
MDA-MB-231 [33] = assay: Inhibition of Wnt/beta-Catenin signaling in drug-tolerant human MDA-MB-231/lapatinib cells assessed as reduction in beta-catenin level at 20 uM incubated for 24 hrs by Western blot analysis
MDA-MB-231 [34] = assay: Inhibition of colony formation in human drug-tolerant MDA-MB-231/lapatinib cells at 5 uM measured after 24 hrs; format: functional

T1 sequence (P00533 whole entry): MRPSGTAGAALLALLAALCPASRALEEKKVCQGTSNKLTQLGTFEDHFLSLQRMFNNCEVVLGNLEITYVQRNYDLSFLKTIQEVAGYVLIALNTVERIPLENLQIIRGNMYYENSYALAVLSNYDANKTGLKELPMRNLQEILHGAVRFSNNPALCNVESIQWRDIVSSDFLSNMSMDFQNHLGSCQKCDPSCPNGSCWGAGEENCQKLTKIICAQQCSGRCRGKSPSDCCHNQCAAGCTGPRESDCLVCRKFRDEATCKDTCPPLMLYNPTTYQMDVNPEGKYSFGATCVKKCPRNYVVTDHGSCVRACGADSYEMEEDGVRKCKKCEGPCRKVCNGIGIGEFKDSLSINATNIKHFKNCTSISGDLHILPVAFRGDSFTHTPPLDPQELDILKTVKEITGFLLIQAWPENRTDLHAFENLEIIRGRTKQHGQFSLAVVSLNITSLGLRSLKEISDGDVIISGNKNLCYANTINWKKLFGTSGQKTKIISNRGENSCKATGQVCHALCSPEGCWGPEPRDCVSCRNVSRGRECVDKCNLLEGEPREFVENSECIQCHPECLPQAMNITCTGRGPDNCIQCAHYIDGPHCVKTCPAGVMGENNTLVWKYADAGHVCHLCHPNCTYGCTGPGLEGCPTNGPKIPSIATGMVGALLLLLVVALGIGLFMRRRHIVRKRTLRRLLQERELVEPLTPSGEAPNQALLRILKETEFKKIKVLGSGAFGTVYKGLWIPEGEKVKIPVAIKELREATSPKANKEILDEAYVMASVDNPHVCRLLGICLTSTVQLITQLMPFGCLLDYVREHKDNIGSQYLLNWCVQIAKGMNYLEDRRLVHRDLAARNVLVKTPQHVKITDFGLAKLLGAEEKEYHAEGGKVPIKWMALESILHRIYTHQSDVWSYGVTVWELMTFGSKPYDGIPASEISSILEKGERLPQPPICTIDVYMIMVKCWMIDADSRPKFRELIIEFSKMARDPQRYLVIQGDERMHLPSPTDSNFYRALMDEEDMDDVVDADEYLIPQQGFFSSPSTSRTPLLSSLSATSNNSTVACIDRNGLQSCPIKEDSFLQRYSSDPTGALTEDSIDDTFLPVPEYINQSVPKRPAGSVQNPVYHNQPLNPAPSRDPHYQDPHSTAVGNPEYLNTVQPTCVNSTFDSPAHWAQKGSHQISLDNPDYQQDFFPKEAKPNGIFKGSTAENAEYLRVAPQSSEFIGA

## CC(OC(=O)CCCC(=O)N(CCS(C)(=O)=O)Cc1ccc(-c2ccc3ncnc(Nc4ccc(OCc5cccc(F)c5)c(Cl)c4)c3c2)o1)c1cc2c(o1)C(=O)c1ccccc1C2=O (stereo unspecified)
MDA-MB-231 [1]
  inhibition: Active
[2]
  IC50: 7.36 nM
[3]
  Ratio IC50: 0.82
[4]
  inhibition: Active
[5]
  inhibition: Active
MDA-MB-231 [6]
  inhibition: Active
MDA-MB-231 [7]
  inhibition at 20 µM: 52.2%
MDA-MB-231 [8]
  Activity: Active
[9]
  IC50: 135 nM
MDA-MB-231 [10]
  inhibition: Active
MDA-MB-231 [11]
  inhibition at 20 µM: 2.03%
MDA-MB-231 [12]
  IC50: 2040 nM
MDA-MB-231 [13]
  inhibition at 20 µM: 77.3%
MDA-MB-231 [14]
  inhibition: Active
MCF7
  IC50: 3.86 µM
MDA-MB-231 [15]
  Activity: Active
MDA-MB-231 [16]
  inhibition: Active
MDA-MB-231 [17]
  inhibition: Active
MDA-MB-231 [18]
  inhibition: Active
[19]
  inhibition: Dose-Dependent Effect
MDA-MB-231 [20]
  inhibition at 20 µM: 71.2%
MDA-MB-231 [21]
  IC50: 2030 nM
[22]
  inhibition: Dose-Dependent Effect
[23]
  inhibition: Dose-Dependent Effect
MDA-MB-231 [24]
  Activity: Active
MDA-MB-231 [25]
  IC50: 1690 nM
[26]
  inhibition: Dose-Dependent Effect
[27]
  logP: 2.15
MDA-MB-231 [28]
  Activity: Active
MDA-MB-231 [29]
  inhibition: Active
MDA-MB-231 [30]
  inhibition: Active
MDA-MB-231 [31]
  inhibition: Active
HUVEC
  IC50: 63.3 µM
MDA-MB-231 [32]
  inhibition: Active
MDA-MB-231 [33]
  inhibition: Active
MDA-MB-231 [34]
  inhibition at 5 µM: 10.9%
